# Reference: patent US20030212034A1, “Method of treatment of obesity and paralyzed muscle and ergogenic aids” (priority 2002, published 2003)
# Assays:
# Type in all cases: in vivo, rat
# hexokinase = assay: Muscle hexokinase activity after chronic AICAR injection; conditions: AICAR 1 mg/g 4 weeks, FIG. 5
# Method: (§1) To determine the effect of chronic injection of AICAR on muscle enyzme activities or expression and on muscle GLUT4, rats were injected subcutaneously (between 8 and 10 a.m.) with AICAR (1 mg/g) or saline vehicle daily for 28±1 days in succession. Beginning with the first injection, controls were pair fed with AICAR-injected rats. Rats were anesthetized by intraperitoneal injection of pentobarbital sodium 22-25 hours after the last AICAR injection and the white and red regions of the quadriceps and the soleus muscles were removed and frozen as described above. Muscles were kept frozen at −70° C. until analyzed. Liver, heart, kidney, and fat pads were weighed.
# (§2) For enzyme activity measurements, 10% homogenates were made from the respective muscles in 175 mM KCl, 10 mM GSH, 2 mM EDTA, pH 7.4. This homogenate was frozen and thawed 3 times and mixed thoroughly prior to enzymatic measurements. For succinate dehydrogenase and lactate dehydrogenase, an aliquot of the homogenate was centrifuged at 700×g for 10 min at 4° C. The remainder of the assays were performed on aliquots and dilutions of the mixed whole homogenate. Assays were performed by the following methods: citrate synthase, succinate dehydrogenase, the mitochondrial fraction of malate dehydrogenase, hexokinase, lactate dehydrogenase, carnitine palmitoyl transferase and hydroxyacyl-CoA dehydrogenase. Srere, P. A. Methods in Enzymology 13:3-6, 1969; King, T. E. Methods Enzymol 10:322-335, 1967; Shonk, C. E. & G. E. Boxer, Cancer Res. 24:709-721, 1964; Uyeda, K., & E. Racker, J. Biol Chem 240:4682-4688, 1965; Pesce, A., et al. J. Biol. Chem. 239:1753-1761, 1964; Baldwin, K. M., et al. Am. J. Physiol 222:373-378, 1972; Mole, P. A., et al. J. Clin. Invest. 50:2323-2330, 1971; Kobayashi, A. et al. J. Biochem. 119:775-782, 1996.
# GLUT4 = assay: Muscle GLUT4 by western blot after chronic AICAR injection; conditions: AICAR 1 mg/g 4 weeks, FIG. 5
# Method: as §1
# For the chronic effects of AICAR injection muscles were analyzed for glycogen GLUT-4, hexokinase, lactate dehydrogenase, and several mitochondrial enzymes. Hassid, W. Z., & S. Abraham Methods Enzymol. 3:35-36, 1957. GLUT4 was quantitated by western blotting as described previously using GLUT4 polyclonal antibody RaIRGT, Biogenesis, Sandown, N.H.) and horseradish peroxidase-conjugated donkey anti-rabbit IgG (Amersham Life Science, Arlington Heights, Ill.). Holmes, B. F., et al. J. Appl Physiol 87:1990-1995, 1999. δ-Aminolevulinic acid synthase was determined using western blotting techniques as described previously. Li, B., et al. J. Biol. Chem. 274:17534-17540, 1999. For determination of cytochrome c, muscles were homogenized in 10 mM n-2-hydroxyethylpiperazine-N′-2-ethanesulfonic acid (HEPES), 1 mM EDTA, and 250 mM sucrose (HES buffer). […] Cytochrome c was detected by incubating the nitrocellulose blots with a rabbit polyclonal antibody against rabbit heart cytochrome c (Alpha Diagnostics International, San Antonio) followed by horseradish peroxidase-conjugated anti-rabbit immunoglobulin G. Antibody bound GLUT4, δ-Aminolevulinic acid synthase, and cytochrome c were visualized using enhanced chemiluminescence. Protein bands were quantified by densitometry.
# [1] = system: AMP-activated protein kinase (AMPK); assay: AMPK activity in ammonium sulfate precipitates of muscle homogenates after s.c. AICAR injection
# Method: (§3) Three days prior to the experiment, jugular cathethers were installed and exteriorized on the back of the neck to allow rapid anesthesia of the rat and rapid blood and tissue collection. Rats were then injected with AICAR (1 mg/g body wt) subcutaneously in sterile 0.9% NaCl or were given 0.9% NaCl (n=6 rats per group). One hour after the subcutaneous injection, rats were anesthetized by intravenous injection of pentobarbital sodium (4.8 mg/100 g body wt). The superficial white and the deep red regions of the quadriceps muscles, and the soleus muscles were quickly removed and frozen with stainless steel clamps at liquid nitrogen temperature.
# (§4) Resuspended ammonium sulfate precipitates of tissue homogenates were analyzed for AMPK activity and acetyl-CoA carboxylase activity as described previously. Li, B., et al. J. Biol. Chem. 274:17534-17540, 1999; Winder, W. W., & D. G. Hardie Am. J. Physiol. 270:E299-E304, 1996. […] ACC activity at 0.2 mM citrate provides some indication of the in vivo activity of AMPK, since ACC is a target for phosphorylation of AMPK. ACC activity has previously been reported to decrease in response to phosphorylation by AMPK. Winder, W. W., & D. G. Hardie Am. J. Physiol. 270:E299-E304, 1996. The acute experiment was also repeated on rats treated with AICAR or saline for 4 weeks to see if the responses of AMPK and ACC to AICAR persisted for the entire treatment period. In both experiments ATP and CP were measured on neutralized perchloric acid extracts of muscle.
# [2] = system: hydroxyacyl-CoA dehydrogenase; assay: Muscle hydroxyacyl-CoA dehydrogenase activity after chronic AICAR injection; conditions: chronic AICAR 1 mg/g daily 4 wk
# Method: as §1, §2
# cytochrome c = assay: Muscle cytochrome c protein by western blot after chronic AICAR injection; conditions: AICAR 4 weeks, FIG. 2
# Method: as §1
# For the chronic effects of AICAR injection muscles were analyzed for glycogen GLUT-4, hexokinase, lactate dehydrogenase, and several mitochondrial enzymes. Hassid, W. Z., & S. Abraham Methods Enzymol. 3:35-36, 1957. GLUT4 was quantitated by western blotting as described previously using GLUT4 polyclonal antibody RaIRGT, Biogenesis, Sandown, N.H.) and horseradish peroxidase-conjugated donkey anti-rabbit IgG (Amersham Life Science, Arlington Heights, Ill.). Holmes, B. F., et al. J. Appl Physiol 87:1990-1995, 1999. δ-Aminolevulinic acid synthase was determined using western blotting techniques as described previously. Li, B., et al. J. Biol. Chem. 274:17534-17540, 1999. […] Protein bands were quantified by densitometry.
# [3] = system: acetyl-CoA carboxylase (ACC); assay: Acetyl-CoA carboxylase activity at 0.2 mM citrate in muscle after s.c. AICAR injection; conditions: for ACC: at 0.2 mM citrate
# Method: as §3, §4
# lactate dehydrogenase = assay: Muscle lactate dehydrogenase activity after chronic AICAR injection; conditions: chronic AICAR 1 mg/g daily 4 wk
# Method: as §1, §2
# [4] = Food intake, body weight and organ weights after 4 weeks of daily AICAR injection
# Method: as §1
# [5] = red quadriceps, 60 min after AICAR injection, after daily injections for 4 wk
# [6] = red quadriceps, 60 min after single AICAR injection 1 mg/g s.c., no chronic treatment
# [7] = soleus, 60 min after AICAR injection, after daily injections for 4 wk
# [8] = soleus, 60 min after single AICAR injection 1 mg/g s.c., no chronic treatment
# [9] = white quadriceps, 60 min after AICAR injection, after daily injections for 4 wk
# [10] = white quadriceps, 60 min after single AICAR injection 1 mg/g s.c., no chronic treatment
# [11] = AICAR-injected rats, single injection, 0.2 mM citrate
# [12] = AICAR 1 mg/g s.c. daily for four weeks
smiles,measurement,setting,value
"NC(=O)c1ncn([C@@H]2O[C@H](CO)[C@@H](O)[C@H]2O)c1N [AICAR, 5-aminoimidazole-4-carboxamide-1-β-D-ribofuranoside]",hexokinase activity vs saline-injected controls,hexokinase; red region of the quadriceps,significantly increased
same,hexokinase activity vs saline-injected controls,hexokinase; soleus,increase in hexokinase activity in soleus was statistically significant
same,hexokinase activity vs saline-injected controls,hexokinase; white region of the quadriceps,significantly increased
same,GLUT4 vs saline-injected controls,GLUT4; red region of the quadriceps,significantly increased
same,GLUT4 vs saline-injected controls,"GLUT4; soleus, p=0.12",did not reach statistical significance
same,GLUT4 vs saline-injected controls,GLUT4; white region of the quadriceps,significantly increased
same,AMPK,[1]; [5],200 ± 17 pmol/g/min
same,AMPK,[1]; [6],405 ± 62 pmol/g/min
same,AMPK,[1]; [7],191 ± 22 pmol/g/min
same,AMPK,[1]; [8],447 ± 42 pmol/g/min
same,AMPK,[1]; [9],258 ± 32 pmol/g/min
same,AMPK,[1]; [10],"1,102 ± 80 pmol/g/min"
same,HADH activity,[2]; red quadriceps,9.0 ± 0.4 µmol/g/min
same,HADH activity,[2]; soleus,4.6 ± 0.4 µmol/g/min
same,HADH activity,[2]; white quadriceps,4.6 ± 0.3 µmol/g/min
same,cytochrome c protein vs saline controls,cytochrome c; red quadriceps,not in red quadriceps
same,cytochrome c protein vs saline controls,cytochrome c; white quadriceps,also increased
same,ACC activity in white quadriceps relative to that seen in red quadriceps,[3]; [11],61%
same,ACC activity in white quadriceps relative to that seen in soleus,[3]; [11],44%
same,ACC,[3]; [5],0.21 ± 0.01 nmol/g/min
same,ACC,[3]; [6],0.19 ± 0.02 nmol/g/min
same,ACC,[3]; [7],0.28 ± 0.01 nmol/g/min
same,ACC,[3]; [8],0.19 ± 0.02 nmol/g/min
same,ACC,[3]; [9],0.12 ± 0.01 nmol/g/min
same,ACC,[3]; [10],0.08 ± 0.02 nmol/g/min
same,LDH activity,lactate dehydrogenase; red quadriceps,557 ± 26 µmol/g/min
same,LDH activity,lactate dehydrogenase; soleus,162 ± 7 µmol/g/min
same,LDH activity,lactate dehydrogenase; white quadriceps,685 ± 20 µmol/g/min
same,Epididymal Fat Pad weight,[4]; [12],1.21 ± 0.10 g
same,Heart weight,[4]; [12],0.80 ± 0.02 g
same,Kidney weight,[4]; [12],0.99 ± 0.02 g
same,Liver weight,[4]; [12],16.0 ± 0.50 g
same,Retroperitoneal Fat Pad weight,[4]; [12],0.90 ± 0.08 g
same,Body Weight,"[4]; AICAR 1 mg/g s.c. daily for four weeks, pair-fed controls",254 ± 5 g
same,food intake and body weight vs saline injected rats,"[4]; AICAR for 4 weeks, FIG. 1",No statistically significant differences
